Laboratory results from ChEMBL document CHEMBL2029308, “Synthesis and anti-leishmanial activity of 1-aryl-β-carboline derivatives against Leishmania donovani” (Bioorg Med Chem Lett, 2012).

Legend:
[1] = Cytotoxicity against mouse peritoneal macrophages; assay type: cell-based, Peritoneal macrophage cell
Leishmania donovani = test: Antileishmanial activity against Leishmania donovani MHOM/ET/67/HU3 after 72 hrs by MTT assay; assay type: functional, organism-based; conditions: MHOM/ET/67/HU3, 72 h
[2] = Selectivity ratio of CC50 for mouse peritoneal macrophages to IC50 for Leishmania donovani MHOM/ET/67/HU3

Compound	CC50 [1] [µM]	IC50 (Leishmania donovani) [µM]	Ratio CC50/IC50 [2]
O=[N+]([O-])c1ccc(-c2[nH]ccc3c4ccccc4nc2-3)cc1	> 50	> 100	
O=C(Nc1ccc(-c2nccc3c2[nH]c2ccccc23)cc1)c1cccc2ccccc12	> 50	> 100	
O=C(O)C1Cc2c([nH]c3ccccc23)C(c2ccc([N+](=O)[O-])cc2)N1 (stereo unspecified)	> 50	> 100	
Nc1ccc(-c2nccc3c2[nH]c2ccccc23)cc1	> 50	46.6	
CC(=O)Nc1ccc(-c2nccc3c2[nH]c2ccccc23)cc1	> 50	2.16	>20
O=C(Nc1ccc(-c2nccc3c2[nH]c2ccccc23)cc1)c1ccc2ccccc2c1	> 50	8.84	
COc1ccc(C(=O)Nc2ccc(-c3nccc4c3[nH]c3ccccc34)cc2)cc1	> 50	12.3	
O=C(Nc1ccc(-c2nccc3c2[nH]c2ccccc23)cc1)c1cccs1	> 50	15	
CCCCCCCCCCCCCC(=O)Nc1ccc(-c2nccc3c2[nH]c2ccccc23)cc1	> 50	> 100	
O=C(Nc1ccc(-c2nccc3c2[nH]c2ccccc23)cc1)c1ccco1	> 50	6.38	
O=C(Nc1ccc(-c2nccc3c2[nH]c2ccccc23)cc1)c1ccccc1	> 50	9.68	
C=CCCCCCCCCC(=O)Nc1ccc(-c2nccc3c2[nH]c2ccccc23)cc1	> 50	> 100	
O=C(Nc1ccc(-c2nccc3c2[nH]c2ccccc23)cc1)c1ccc(F)cc1F	> 50	> 100	
O=C(Nc1ccc(-c2nccc3c2[nH]c2ccccc23)cc1)c1ccc(F)c(F)c1	> 50	13.1	
CC(C)(C)c1ccc(C(=O)Nc2ccc(-c3nccc4c3[nH]c3ccccc34)cc2)cc1	> 50	> 100	
Cc1ccc(C(=O)Nc2ccc(-c3nccc4c3[nH]c3ccccc34)cc2)cc1	> 50	14.3	
CCCCC(=O)Nc1ccc(-c2nccc3c2[nH]c2ccccc23)cc1	> 50	19.7	
CCCCCCCCCCCC(=O)Nc1ccc(-c2nccc3c2[nH]c2ccccc23)cc1	> 50	> 100	
O=C(/C=C/c1ccccc1)Nc1ccc(-c2nccc3c2[nH]c2ccccc23)cc1	> 50	7.7	
Cc1cc(C(=O)Nc2ccc(-c3nccc4c3[nH]c3ccccc34)cc2)c(C)o1	> 50	30.1	
O=C(Nc1ccc(-c2nccc3c2[nH]c2ccccc23)cc1)c1ccc(C(F)(F)F)cc1	> 50	> 100	
N#Cc1ccc(C(=O)Nc2ccc(-c3nccc4c3[nH]c3ccccc34)cc2)cc1	> 50	5.31	
CCCCCCCCCCCCCCCCOP(=O)([O-])OCC[N+](C)(C)C [MILTEFOSINE]		12.1	
